Results from a compilation of properties of binary mixtures (doi:10.1007/s10973-023-12194-1).

Experiment: xn = mol fraction of the nth substance listed
Conditions: 101.3 kPa

CCCC[NH3+].O=[N+]([O-])[O-] + O
x2 = 0.435
Conditions	viscosity [mPa·s]
283.15 K	43.41
288.15 K	35.87
293.15 K	29.92
303.15 K	21.45
308.15 K	18.52
313.15 K	16.04
318.15 K	14.65
323.15 K	12.38
328.15 K	11.26
333.15 K	9.535
338.15 K	8.605
343.15 K	7.11
348.15 K	6.46
353.15 K	5.89
358.15 K	5.4
363.15 K	4.98
368.15 K	4.6
373.15 K	4.266

CC[NH3+].O=[N+]([O-])[O-] + O
x2 = 0.574
Conditions	viscosity [mPa·s]
283.15 K	8.965
288.15 K	6.679
293.15 K	6.018
298.15 K	5.487
313.15 K	4.258
318.15 K	3.893
323.15 K	3.622
333.15 K	3.173
338.15 K	3.007
348.15 K	1.807
353.15 K	1.695
358.15 K	1.589
363.15 K	1.492
368.15 K	1.434
373.15 K	1.343
